Results reported in ChEMBL document CHEMBL1201862, “PubChem BioAssay data set” (2004).
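Interpolation was linear, between the two tested concentrations surrounding the appropriate level; five concentrations were tested over 48 hours in 96-well plates. At the GI50, growth is halved.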 Activity calls are given as the source filed them. Cut-off read from the data, not from the text of the source: active = GI50 up to about 1.1 µM and inactive = higher.

Legend:
Assay in all cases: growth of human tumour cells (NCI), 48 h
786-0 = system: 786-0
A498 = system: A498
A549 = system: A549
BT-549 = system: BT-549
CAKI-1 = system: CAKI-1
CCRF-CEM = system: CCRF-CEM
COLO 205 = system: COLO 205
DU-145 = system: DU-145
EKVX = system: EKVX
HCC 2998 = system: HCC 2998
HCT-116 = system: HCT-116
HCT-15 = system: HCT-15
HL-60 = system: HL-60
HT-29 = system: HT-29
Hs-578T = system: Hs-578T
IGROV-1 = system: IGROV-1
K562 = system: K562
KM12 = system: KM12
LOX IMVI = system: LOX IMVI
M14 = system: M14
MDA-MB-231 = system: MDA-MB-231
MDA-MB-435 = system: MDA-MB-435
MDA-N = system: MDA-N
MOLT-4 = system: MOLT-4
Malme-3M = system: Malme-3M
NCI-H226 = system: NCI-H226
NCI-H23 = system: NCI-H23
NCI-H460 = system: NCI-H460
NCI-H522 = system: NCI-H522
NCI/ADR-RES = system: NCI/ADR-RES
OVCAR-3 = system: OVCAR-3
OVCAR-4 = system: OVCAR-4
OVCAR-5 = system: OVCAR-5
OVCAR-8 = system: OVCAR-8
PC-3 = system: PC-3
RPMI-8226 = system: RPMI-8226
RXF 393 = system: RXF 393
SF-268 = system: SF-268
SF-539 = system: SF-539
SK-MEL-28 = system: SK-MEL-28
SK-MEL-2 = system: SK-MEL-2
SK-MEL-5 = system: SK-MEL-5
SK-OV-3 = system: SK-OV-3
SN12C = system: SN12C
SNB-19 = system: SNB-19
SNB-75 = system: SNB-75
SR = system: SR
SW-620 = system: SW-620
T47D = system: T47D
TK-10 = system: TK-10
U-251 = system: U-251
UACC-257 = system: UACC-257
UACC-62 = system: UACC-62
UO-31 = system: UO-31
ACHN = system: ACHN
HOP-92 = system: HOP-92
MCF7 = system: MCF7
SF-295 = system: SF-295
HOP-62 = system: HOP-62

Measured: GI50

CSC1=C(C#N)C(=S)N=C(N)C1C(=O)Nc1ccc(C)cc1 (stereo not drawn)
inactive: 786-0 > 100 µM | A498 68.9 µM | A549 > 100 µM | BT-549 > 100 µM | CAKI-1 > 100 µM | CCRF-CEM > 100 µM | COLO 205 > 100 µM | DU-145 > 100 µM | EKVX > 100 µM | HCC 2998 > 100 µM | HCT-116 81.5 µM | HL-60 > 100 µM | HT-29 > 100 µM | Hs-578T > 100 µM | IGROV-1 > 100 µM | K562 > 100 µM | KM12 > 100 µM | LOX IMVI > 100 µM | M14 > 100 µM | MDA-MB-231 > 100 µM | MDA-MB-435 > 100 µM | MDA-N > 100 µM | MOLT-4 > 100 µM | Malme-3M > 100 µM | NCI-H226 60.1 µM | NCI-H23 > 100 µM | NCI-H460 > 100 µM | NCI-H522 32 µM | NCI/ADR-RES > 100 µM | OVCAR-3 > 100 µM | OVCAR-4 > 100 µM | OVCAR-5 > 100 µM | OVCAR-8 > 100 µM | PC-3 > 100 µM | RPMI-8226 > 100 µM | RXF 393 > 100 µM | SF-268 > 100 µM | SF-539 > 100 µM | SK-MEL-28 > 100 µM | SK-MEL-2 > 100 µM | SK-MEL-5 > 100 µM | SK-OV-3 > 100 µM | SN12C > 100 µM | SNB-19 > 100 µM | SNB-75 > 100 µM | SR > 100 µM | SW-620 > 100 µM | T47D > 100 µM | TK-10 > 100 µM | U-251 > 100 µM | UACC-257 > 100 µM | UACC-62 > 100 µM | UO-31 64 µM
> 100 µM: HCT-15

COc1ccccc1C(=O)N(C)c1ccc(Cl)c(C(=O)OC(C)C)c1
inactive: 786-0 36.2 µM | A498 70.6 µM | A549 49.9 µM | ACHN 84.9 µM | BT-549 33 µM | CAKI-1 > 100 µM | CCRF-CEM > 100 µM | COLO 205 42.9 µM | DU-145 42.5 µM | EKVX 44.2 µM | HCC 2998 27 µM | HCT-116 40.3 µM | HOP-92 48.2 µM | HT-29 > 100 µM | Hs-578T > 100 µM | IGROV-1 > 100 µM | KM12 23.3 µM | LOX IMVI 87.3 µM | M14 68.9 µM | MCF7 62.4 µM | MDA-MB-231 > 100 µM | MDA-MB-435 29.4 µM | MDA-N 40.8 µM | MOLT-4 39.7 µM | Malme-3M > 100 µM | NCI-H226 > 100 µM | NCI-H23 49.2 µM | NCI-H460 42 µM | NCI-H522 39.5 µM | NCI/ADR-RES 52.1 µM | OVCAR-3 71.3 µM | OVCAR-4 35.6 µM | OVCAR-5 > 100 µM | OVCAR-8 > 100 µM | PC-3 31.8 µM | RPMI-8226 39.4 µM | SF-268 95.9 µM | SF-295 30.6 µM | SF-539 > 100 µM | SK-MEL-28 49.7 µM | SK-MEL-2 61.5 µM | SK-MEL-5 22.8 µM | SK-OV-3 45.5 µM | SN12C > 100 µM | SNB-19 > 100 µM | SNB-75 30.7 µM | SW-620 46.6 µM | T47D 23.8 µM | TK-10 34 µM | U-251 67.8 µM | UACC-257 23.1 µM | UACC-62 48.8 µM | UO-31 28.7 µM
39.5 µM: HCT-15

C=C(C)C1=CCC[C@]2(C1)N=C(OC)[C@@H](C(C)C)N=C2OC
inactive: 786-0 > 100 µM | A498 > 100 µM | A549 > 100 µM | ACHN > 100 µM | BT-549 > 100 µM | CAKI-1 > 100 µM | CCRF-CEM 34.3 µM | COLO 205 > 100 µM | DU-145 > 100 µM | EKVX > 100 µM | HCC 2998 > 100 µM | HCT-116 > 100 µM | HL-60 28.3 µM | HOP-62 > 100 µM | HOP-92 56 µM | HT-29 > 100 µM | Hs-578T > 100 µM | IGROV-1 47.1 µM | KM12 > 100 µM | M14 > 100 µM | MCF7 92.7 µM | MDA-MB-231 > 100 µM | MDA-MB-435 40.1 µM | MDA-N 32.2 µM | MOLT-4 28.7 µM | Malme-3M > 100 µM | NCI-H226 > 100 µM | NCI-H23 > 100 µM | NCI-H460 > 100 µM | NCI-H522 31.3 µM | NCI/ADR-RES > 100 µM | OVCAR-3 > 100 µM | OVCAR-4 > 100 µM | OVCAR-5 > 100 µM | OVCAR-8 > 100 µM | PC-3 > 100 µM | RPMI-8226 16.3 µM | SF-268 > 100 µM | SF-295 > 100 µM | SF-539 > 100 µM | SK-MEL-28 > 100 µM | SK-MEL-2 > 100 µM | SK-MEL-5 98.6 µM | SK-OV-3 > 100 µM | SN12C > 100 µM | SNB-19 > 100 µM | SNB-75 51.2 µM | SW-620 > 100 µM | T47D > 100 µM | TK-10 > 100 µM | U-251 > 100 µM | UACC-257 > 100 µM | UACC-62 > 100 µM | UO-31 96.4 µM
> 100 µM: HCT-15
